Experimental data as given in DBAASP.
Converted amounts (≈) assume the structure as drawn. “And” between values parts separate entries of the source, which are not always exact repeats. Equal entries are not always repeated.

Legend:
Assay in all cases: ≥ marks a high value that may be exact or a test limit, other limits are often not marked, values filed in µg/mL are converted to µM
[1] = tested on: Escherichia coli ATCC 25922
[2] = tested on: Pseudomonas aeruginosa ATCC 15692
[3] = tested on: Salmonella typhimurium KCTC 1926
Bacillus subtilis = tested on: Bacillus subtilis
Candida albicans = tested on: Candida albicans
Escherichia coli = tested on: Escherichia coli
Micrococcus luteus = tested on: Micrococcus luteus
Proteus mirabilis = tested on: Proteus mirabilis
Pseudomonas aeruginosa = tested on: Pseudomonas aeruginosa
Saccharomyces cerevisiae = tested on: Saccharomyces cerevisiae
Salmonella typhimurium = tested on: Salmonella typhimurium
Serratia marcescens = tested on: Serratia marcescens
Shigella dysenteriae = tested on: Shigella dysenteriae
[4] = tested on: Staphylococcus epidermidis
Bacillus megaterium = tested on: Bacillus megaterium
Escherichia coli ML-35 = tested on: Escherichia coli ML-35
[5] = tested on: Pseudomonas aeruginosa ATCC 27853
[6] = tested on: Salmonella enterica subsp. enterica serovar Typhimurium ATCC 14028
[7] = tested on: Staphylococcus aureus ATCC 25923
[8] = tested on: Bacillus subtilis CMCC 63501
[9] = tested on: Enterococcus faecalis ATCC 29212
Escherichia coli UB1005 = tested on: Escherichia coli UB1005
[10] = tested on: Salmonella enterica subsp. enterica serovar Pullorum C79-13
[11] = tested on: Salmonella typhimurium ATCC 7731
[12] = tested on: Staphylococcus aureus ATCC 29213
[13] = tested on: Staphylococcus aureus ATCC 43300
[14] = tested on: Staphylococcus epidermidis ATCC 12228
Escherichia coli ML-35p = tested on: Escherichia coli ML-35p
[15] = tested on: Micrococcus luteus ATCC 4698

| SMILES | MIC [1] | MIC [5] [µM] | MIC [8] [µM] | MIC [9] [µM] | MIC (Escherichia coli UB1005) [µM] | MIC [10] [µM] | MIC [11] [µM] | MIC [13] [µM] | MIC [14] [µM] | other results |
| --- | --- | --- | --- | --- | --- | --- | --- | --- | --- | --- |
| CC[C@H](C)[C@H](NC(=O)[C@H](Cc1cnc[nH]1)NC(=O)[C@H](Cc1cnc[nH]1)NC(=O)[C@@H](NC(=O)[C@H](CC(C)C)NC(=O)[C@H](Cc1cnc[nH]1)NC(=O)CNC(=O)[C@H](C)NC(=O)CNC(=O)[C@H](Cc1cnc[nH]1)NC(=O)[C@@H](NC(=O)[C@@H](NC(=O)[C@H](CO)NC(=O)CNC(=O)[C@H](C)NC(=O)[C@H](Cc1ccccc1)NC(=O)[C@H](CCCN=C(N)N)NC(=O)[C@H](CC(C)C)NC(=O)[C@@H](N)Cc1ccccc1)C(C)C)[C@@H](C)CC)C(C)C)C(=O)NCC(=O)N[C@H](C(=O)N[C@@H](C)C(=O)N[C@@H](CC(C)C)C(N)=O)C(C)C [FLRFAGSVIHGAGHLVHHIGVAL] | 4 µM and 8 µM | – | – | – | – | – | – | – | – | MIC [2]: ≥ 32 µM; MIC [3]: ≥ 64 µM |
| CC[C@H](C)[C@H](NC(=O)CN)C(=O)N[C@@H](CC(C)C)C(=O)N[C@@H](CC(=O)O)C(=O)N[C@H](C(=O)N[C@@H](CC(C)C)C(=O)N[C@@H](CCCCN)C(=O)N[C@@H](CCC(N)=O)C(=O)N[C@@H](Cc1ccccc1)C(=O)N[C@@H](C)C(=O)N[C@@H](CCCCN)C(=O)NCC(=O)N[C@H](C(=O)NCC(=O)N[C@@H](CCCCN)C(=O)N[C@@H](CC(=O)O)C(=O)N[C@@H](CC(C)C)C(=O)N[C@H](C(=O)N[C@@H](CCCCN)C(=O)NCC(=O)N[C@@H](C)C(=O)N[C@@H](C)C(=O)N[C@@H](CCC(N)=O)C(=O)NCC(=O)N[C@H](C(=O)N[C@@H](CC(C)C)C(=O)N[C@@H](CO)C(=O)N[C@H](C(=O)N[C@H](C(=O)O)C(C)C)[C@@H](C)O)C(C)C)C(C)C)C(C)C)[C@@H](C)O [GILDTLKQFAKGVGKDLVKGAAQGVLSTV] | – | – | – | – | – | – | – | – | – | MIC (Bacillus subtilis): 17.2 µM (≈ 50 µg/mL); MIC (Candida albicans): > 34.3 µM; MIC (Escherichia coli): 8.58 µM (≈ 25 µg/mL); MIC (Micrococcus luteus): 0.858 µM (≈ 2.5 µg/mL); MIC (Proteus mirabilis): 17.2 µM (≈ 50 µg/mL); MIC (Pseudomonas aeruginosa): 8.58 µM (≈ 25 µg/mL); MIC (Saccharomyces cerevisiae): 8.58 µM (≈ 25 µg/mL); MIC (Salmonella typhimurium): 17.2 µM (≈ 50 µg/mL); MIC (Serratia marcescens): ≥ 34.3 µM; MIC (Shigella dysenteriae): 8.58 µM (≈ 25 µg/mL); MIC [4]: ≥ 34.3 µM |
| CC[C@H](C)[C@H](NC(=O)[C@H](CCCCN)NC(=O)[C@H](CCCCN)NC(=O)[C@H](CC(C)C)NC(=O)[C@H](CCCCN)NC(=O)[C@H](CCC(=O)O)NC(=O)[C@H](CCCCN)NC(=O)[C@H](CCCCN)NC(=O)[C@H](CCCCN)NC(=O)[C@H](CC(N)=O)NC(=O)[C@H](CCCN=C(N)N)NC(=O)[C@H](Cc1ccccc1)NC(=O)[C@H](CCCCN)NC(=O)[C@H](CCCN=C(N)N)NC(=O)[C@H](CCCCN)NC(=O)[C@H](CCCN=C(N)N)NC(=O)[C@H](CCCCN)NC(=O)[C@H](CCCN=C(N)N)NC(=O)[C@H](CC(C)C)NC(=O)CN)C(=O)O [GLRKRKRKFRNKKKEKLKKI] | > 64 µM | > 64 | – | – | – | – | – | – | – | MIC (Bacillus megaterium): ≥ 64 µM; MIC (Escherichia coli ML-35): ≥ 64 µM; MIC [6]: > 64 µM; MIC [7]: > 64 µM |
| CC[C@H](C)[C@H](N)C(=O)N[C@@H](Cc1cnc[nH]1)C(=O)N[C@@H](CCCCN)C(=O)N[C@@H](Cc1ccccc1)C(=O)N[C@@H](Cc1c[nH]c2ccccc12)C(=O)N[C@@H](CCCN=C(N)N)C(=O)N[C@@H](CS)C(=O)N[C@@H](CCCN=C(N)N)C(=O)N[C@@H](CCCN=C(N)N)C(=O)N[C@@H](CCCN=C(N)N)C(=O)N[C@@H](Cc1ccccc1)C(=O)N[C@@H](CS)C(=O)N[C@@H](CCCN=C(N)N)C(=O)N[C@@H](Cc1c[nH]c2ccccc12)C(=O)N[C@@H](Cc1ccccc1)C(=O)N[C@@H](CCCCN)C(=O)N[C@@H](Cc1cnc[nH]1)C(=O)N[C@H](C(N)=O)[C@@H](C)CC [IHKFWRCRRRFCRWFKHI] | – | 8 (≈ 20.6 µg/mL) | 16 (≈ 41.2 µg/mL) | 16 (≈ 41.2 µg/mL) | 8 (≈ 20.6 µg/mL) | 8 (≈ 20.6 µg/mL) | 8 (≈ 20.6 µg/mL) | 8 (≈ 20.6 µg/mL) | 8 (≈ 20.6 µg/mL) | MIC [12]: 8 µM and 16 µM |
| CC[C@H](C)[C@H](N)C(=O)N[C@@H](Cc1cnc[nH]1)C(=O)N[C@@H](CCCCN)C(=O)N[C@@H](Cc1ccccc1)C(=O)N[C@@H](Cc1c[nH]c2ccccc12)C(=O)N[C@@H](CCCN=C(N)N)C(=O)N1CCC[C@H]1C(=O)NCC(=O)N[C@@H](CCCN=C(N)N)C(=O)N[C@@H](Cc1c[nH]c2ccccc12)C(=O)N[C@@H](Cc1ccccc1)C(=O)N[C@@H](CCCCN)C(=O)N[C@@H](Cc1cnc[nH]1)C(=O)N[C@H](C(N)=O)[C@@H](C)CC [IHKFWRPGRWFKHI] | – | 4 (≈ 7.63 µg/mL) | 8 (≈ 15.3 µg/mL) | 8 (≈ 15.3 µg/mL) | 4 (≈ 7.63 µg/mL) | 4 (≈ 7.63 µg/mL) | 8 (≈ 15.3 µg/mL) | 16 (≈ 30.5 µg/mL) | 16 (≈ 30.5 µg/mL) | – |
| CC(C)C[C@H](NC(=O)[C@H](CCCCN)NC(=O)[C@H](CCCCN)NC(=O)[C@H](Cc1ccccc1)NC(=O)[C@H](Cc1ccccc1)NC(=O)[C@H](CCCCN)NC(=O)[C@H](CCCCN)NC(=O)[C@H](Cc1ccccc1)NC(=O)[C@H](CCCN=C(N)N)NC(=O)[C@@H](N)CCCCN)C(=O)N[C@@H](CCCCN)C(=O)N[C@@H](CCCCN)C(=O)N[C@@H](Cc1ccccc1)C(=O)N[C@H](C(=O)N[C@@H](CCCCN)C(=O)N[C@@H](CCCCN)C(=O)NCC(=O)N[C@@H](Cc1ccccc1)C(=O)N[C@@H](CCCCN)C(=O)N[C@@H](CCCCN)C(=O)N[C@@H](Cc1ccccc1)C(=O)N[C@@H](C)C(=O)N[C@@H](CCCCN)C(=O)N[C@H](C(=O)O)C(C)C)C(C)C [KRFKKFFKKLKKFVKKGFKKFAKV] | – | – | – | – | – | – | – | – | – | MIC (Escherichia coli ML-35p): 1.98 µM and 0.989 µM |
| CC(C)C[C@H](NC(=O)[C@H](CCCN=C(N)N)NC(=O)[C@H](Cc1cnc[nH]1)NC(=O)[C@H](Cc1c[nH]c2ccccc12)NC(=O)CNC(=O)CNC(=O)[C@@H](N)CO)C(=O)N[C@@H](CCCN=C(N)N)C(=O)N[C@@H](CO)C(=O)O [SGGWHRLRS] | – | – | – | – | – | – | – | – | – | MIC [15]: ≥ 75 µM |

Continued, in another order:

| MIC [1] | MIC [5] [µM] | MIC [8] [µM] | MIC [9] [µM] | MIC (Escherichia coli UB1005) [µM] | MIC [10] [µM] | MIC [11] [µM] | MIC [13] [µM] | MIC [14] [µM] | SMILES | other results |
| --- | --- | --- | --- | --- | --- | --- | --- | --- | --- | --- |
| 16 µM (≈ 42.9 µg/mL) | – | – | – | – | – | – | – | – | CSCC[C@H](NC(=O)[C@@H](NC(=O)[C@@H](NC(=O)[C@H](CCCCN)NC(=O)[C@H](CC(C)C)NC(=O)[C@H](C)NC(=O)[C@H](CCCCN)NC(=O)[C@@H](NC(=O)[C@H](CC(C)C)NC(=O)[C@H](Cc1ccccc1)NC(=O)[C@H](CC(N)=O)NC(=O)[C@H](CCC(=O)O)NC(=O)[C@H](Cc1ccccc1)NC(=O)CNC(=O)[C@H](CC(C)C)NC(=O)[C@@H](N)CCCCN)C(C)C)[C@@H](C)O)C(C)C)C(=O)N[C@@H](Cc1cnc[nH]1)C(=O)N[C@H](C(=O)N1CCC[C@H]1C(=O)N[C@H](C(=O)N[C@@H](CO)C(=O)N1CCC[C@H]1C(=O)N[C@@H](CC(C)C)C(=O)N[C@@H](CC(C)C)C(N)=O)[C@@H](C)O)C(C)C [KLGFENFLVKALKTVMHVPTSPLL] | MIC (Micrococcus luteus): 4 µM (≈ 10.7 µg/mL); MIC [2]: ≥ 256 µM; MIC (Saccharomyces cerevisiae): ≥ 64 µM; MIC [7]: > 256 µM |
| – | 16 (≈ 34.6 µg/mL) | 8 (≈ 17.3 µg/mL) | 16 (≈ 34.6 µg/mL) | 2 (≈ 4.32 µg/mL) | 2 (≈ 4.32 µg/mL) | 8 (≈ 17.3 µg/mL) | 2 (≈ 4.32 µg/mL) | 16 (≈ 34.6 µg/mL) | CC(C)C[C@H](NC(=O)[C@H](CCCNC(=N)N)NC(=O)CNC(=O)CNC(=O)[C@@H](N)CCCNC(=N)N)C(=O)N[C@@H](CS)C(=O)N[C@@H](Cc1ccc(O)cc1)C(=O)N[C@@H](CS)C(=O)N[C@@H](CCCNC(=N)N)C(=O)N[C@@H](CCCNC(=N)N)C(=O)N[C@@H](CCCNC(=N)N)C(=O)N[C@@H](Cc1ccccc1)C(=O)N[C@@H](CS)C(=O)N[C@H](C(=O)N[C@@H](CS)C(=O)N[C@H](C(=O)NCC(=O)N[C@@H](CCCNC(=N)N)C(N)=O)C(C)C)C(C)C [RGGRLCYCRRRFCVCVGR] | – |
